{"source": "ChEMBL document CHEMBL6071200", "about": "“Discovery of Ring-Annulated Analogues of Cannabidiol as Potential Anticancer Agents: Synthesis and Biological Evaluation” (ACS Med Chem Lett, 2024)", "key": {"[1]": {"test": "Metabolic stability in human liver microsomes assessed as half-life at 5 uM measured upto 30 mins in presence of NADPH by LC-MS/MS analysis", "format": "ADME, Microsome"}, "[2]": {"test": "Solubility of compound in SGF by UV absorbance based analysis", "format": "physicochemical"}, "[3]": {"test": "Metabolic stability in human liver microsomes assessed as intrinsic clearance at 5 uM measured upto 30 mins per mg protein in presence of NADPH by LC-MS/MS analysis", "format": "ADME, Microsome", "conditions": "read-out: CLH"}, "[4]": {"tested_on": "MCF7", "test": "Anticancer activity against human MCF7 cells assessed as reduction in cell viability at 5.3 uM preincubated with capsazepine for 1 hrs followed by compound addition and measured after 48 hrs by SRB assay", "format": "functional, cell-based"}, "[5]": {"test": "Metabolic stability in mouse liver microsomes assessed as hepatic extraction ratio at 5 uM measured upto 30 mins in presence of NADPH by LC-MS/MS analysis", "format": "ADME, Microsome", "conditions": "read-out: ERH"}, "[6]": {"test": "Selectivity index, ratio of IC50 for HEK293 cells to IC50 for human HCT-116 cells", "format": "toxicity", "conditions": "HEK293 cells versus HCT-116 cells, read-out: Ratio IC50"}, "[7]": {"tested_on": "MCF7", "test": "Inhibition of colony formation in human MCF7 cells assessed as reduction in number of colonies at subtoxic doses measured after 48 hrs by crystal violet staining based analysis", "format": "functional, cell-based"}, "[8]": {"tested_on": "HCT-116", "test": "Cytotoxicity against human HCT-116 cells assessed as inhibition of cell growth incubated for 48 hrs by SRB assay", "format": "functional, cell-based", "conditions": "HCT-116, 48 h"}, "[9]": {"tested_on": "MCF7", "test": "Induction of apoptosis in human MCF7 cells assessed as necrotic cells at 5.3 uM incubated for 24 hrs by Annexin V-FITC/PI staining based flow cytometric analysis (reference value: 4.02 %)", "format": "functional"}, "[10]": {"test": "Solubility of compound in SIF by UV absorbance based analysis", "format": "physicochemical"}, "[11]": {"tested_on": "MCF7", "test": "Induction of apoptosis in human MCF7 cells assessed as early apoptotic cells at 5.3 uM incubated for 24 hrs by Annexin V-FITC/PI staining based flow cytometric analysis (reference value: 2.93 %)", "format": "functional"}, "[12]": {"tested_on": "MCF7", "test": "Cell cycle arrest in human MCF7 cells assessed as accumulation of cells at S phase at 5.3 uM incubated for 24 hrs by PI staining based flow cytometric analysis (reference value: 22.93 %)", "format": "functional"}, "[13]": {"test": "Metabolic stability in mouse liver microsomes assessed as half-life at 5 uM measured upto 30 mins in presence of NADPH by LC-MS/MS analysis", "format": "ADME, Microsome"}, "[14]": {"test": "Selectivity index, ratio of IC50 for HEK293 cells to IC50 for human MCF7 cells", "format": "toxicity", "conditions": "HEK293 cells versus MCF7 cells, read-out: Ratio IC50"}, "[15]": {"tested_on": "MCF7", "test": "Anticancer activity against human MCF7 cells assessed as reduction in cell viability at 5.3 uM preincubated with SR144528 for 1 hrs followed by compound addition and measured after 48 hrs by SRB assay", "format": "functional, cell-based"}, "[16]": {"tested_on": "MCF7", "test": "Cytotoxicity against human MCF7 cells assessed as inhibition of cell growth at 20 uM incubated for 48 hrs by SRB assay relative to control", "format": "functional"}, "[17]": {"test": "Permeability of compound at 100 uM incubated for 16 hrs by PAMPA-BBB assay", "format": "ADME"}, "[18]": {"tested_on": "MCF7", "test": "Anticancer activity against human MCF7 cells assessed as reduction in cell viability at 5.3 uM preincubated with LY320135 for 1 hrs followed by compound addition and measured after 48 hrs by SRB assay", "format": "functional, cell-based"}, "[19]": {"test": "Metabolic stability in mouse liver assessed as intrinsic clearance at 5 uM measured upto 30 mins in presence of NADPH by LC-MS/MS analysis", "format": "ADME, tissue-based", "conditions": "read-out: CLH"}, "[20]": {"tested_on": "MCF7", "test": "Anticancer activity against human MCF7 cells assessed as reduction in cell viability at 5.3 uM preincubated with GW9662 for 1 hrs followed by compound addition and measured after 48 hrs by SRB assay", "format": "functional, cell-based"}, "[21]": {"target": "Cytochrome P450 1A2 (Homo sapiens, UniProt P05177)", "sequence (P05177 whole entry)": "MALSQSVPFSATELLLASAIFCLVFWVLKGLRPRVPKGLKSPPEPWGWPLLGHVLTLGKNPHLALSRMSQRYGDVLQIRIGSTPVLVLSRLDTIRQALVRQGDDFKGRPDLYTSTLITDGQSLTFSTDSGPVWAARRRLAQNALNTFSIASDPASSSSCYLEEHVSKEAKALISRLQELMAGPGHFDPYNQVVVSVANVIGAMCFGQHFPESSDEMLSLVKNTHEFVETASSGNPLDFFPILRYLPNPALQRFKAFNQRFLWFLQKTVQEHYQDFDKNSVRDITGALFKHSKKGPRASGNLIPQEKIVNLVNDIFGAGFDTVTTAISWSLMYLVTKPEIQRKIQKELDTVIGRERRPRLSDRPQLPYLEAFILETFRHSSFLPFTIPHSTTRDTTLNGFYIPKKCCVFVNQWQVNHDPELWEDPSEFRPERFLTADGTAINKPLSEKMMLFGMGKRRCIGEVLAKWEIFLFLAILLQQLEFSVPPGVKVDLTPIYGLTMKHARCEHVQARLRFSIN", "test": "Inhibition of CYP1A2 in human liver microsomes using […] substrate at 1 to 10 uM in presence of NADPH by LC-MS/MS analysis", "format": "ADME, Microsome", "conditions": "dose 1-10 µM"}, "[22]": {"tested_on": "HCT-116", "test": "Cytotoxicity against human HCT-116 cells assessed as inhibition of cell growth at 20 uM incubated for 48 hrs by SRB assay relative to control", "format": "functional"}, "[23]": {"target": "Cytochrome P450 2C19 (Homo sapiens, UniProt P33261)", "sequence (P33261 whole entry)": "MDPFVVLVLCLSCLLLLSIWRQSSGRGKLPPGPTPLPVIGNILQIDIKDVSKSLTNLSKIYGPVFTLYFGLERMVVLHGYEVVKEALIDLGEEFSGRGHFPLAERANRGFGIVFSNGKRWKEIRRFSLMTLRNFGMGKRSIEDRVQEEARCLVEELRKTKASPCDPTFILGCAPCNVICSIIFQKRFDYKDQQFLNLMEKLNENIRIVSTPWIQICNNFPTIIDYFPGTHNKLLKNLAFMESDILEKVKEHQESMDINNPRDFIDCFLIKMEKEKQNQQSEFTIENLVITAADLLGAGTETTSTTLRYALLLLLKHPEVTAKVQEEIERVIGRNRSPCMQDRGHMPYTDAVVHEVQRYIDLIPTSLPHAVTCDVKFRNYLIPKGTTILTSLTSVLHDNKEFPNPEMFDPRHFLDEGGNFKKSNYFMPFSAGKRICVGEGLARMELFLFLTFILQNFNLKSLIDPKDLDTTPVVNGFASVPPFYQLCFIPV", "test": "Inhibition of CYP2C19 in human liver microsomes using S-mephenytoin substrate at 1 to 10 uM in presence of NADPH by LC-MS/MS analysis", "format": "ADME, Microsome", "conditions": "dose 1-10 µM"}, "[24]": {"tested_on": "MCF7", "test": "Induction of apoptosis in human MCF7 cells assessed as late apoptotic cells at 5.3 uM incubated for 24 hrs by Annexin V-FITC/PI staining based flow cytometric analysis (reference value: 4.85 %)", "format": "functional"}, "[25]": {"tested_on": "MCF7", "test": "Induction of mitochondrial membrane loss in human MCF7 cells assessed as fold change at 5.3 uM incubated for 24 hrs by Mitotracker dye based flow cytometric analysis relative to control", "format": "functional"}, "[26]": {"tested_on": "MCF7", "test": "Cell cycle arrest in human MCF7 cells assessed as accumulation of cells at G1 phase at 5.3 uM incubated for 24 hrs by PI staining based flow cytometric analysis (reference value: 63.9 %)", "format": "functional"}, "[27]": {"test": "Metabolic stability in human liver assessed as intrinsic clearance at 5 uM measured upto 30 mins in presence of NADPH by LC-MS/MS analysis", "format": "ADME, tissue-based", "conditions": "read-out: CLH"}, "[28]": {"tested_on": "MCF7", "test": "Cell cycle arrest in human MCF7 cells assessed as accumulation of cells at G2/M phase at 5.3 uM incubated for 24 hrs by PI staining based flow cytometric analysis (reference value: 13.7 %)", "format": "functional"}, "[29]": {"test": "Solubility of compound in water by UV absorbance based analysis", "format": "physicochemical"}, "[30]": {"tested_on": "MCF7", "test": "Anticancer activity against human MCF7 cells assessed as reduction in cell viability at 5.3 uM preincubated with ML-193 for 1 hrs followed by compound addition and measured after 48 hrs by SRB assay", "format": "functional, cell-based"}, "[31]": {"test": "Metabolic stability in human liver microsomes assessed as hepatic extraction ratio at 5 uM measured upto 30 mins in presence of NADPH by LC-MS/MS analysis", "format": "ADME, Microsome", "conditions": "read-out: ERH"}, "[32]": {"test": "Cytotoxicity against human HEK293 cells assessed as inhibition of cell growth incubated for 48 hrs by SRB assay", "format": "toxicity, cell-based"}, "[33]": {"tested_on": "MCF7", "test": "Anticancer activity against human MCF7 cells assessed as reduction in cell viability at 5.3 uM incubated for 48 hrs by SRB assay relative to control", "format": "functional"}, "[34]": {"test": "Metabolic stability in mouse liver microsomes assessed as intrinsic clearance at 5 uM measured upto 30 mins per mg protein in presence of NADPH by LC-MS/MS analysis", "format": "ADME, Microsome", "conditions": "read-out: CLH"}, "[35]": {"tested_on": "MCF7", "test": "Induction of ROS production in human MCF7 cells assessed as DCFDA intensity at 5.3 uM incubated for 24 hrs by flow cytometric analysis (reference value: 0.95 %)", "format": "functional"}, "[36]": {"tested_on": "MCF7", "test": "Induction of apoptosis in human MCF7 cells assessed as viable cells at 5.3 uM incubated for 24 hrs by Annexin V-FITC/PI staining based flow cytometric analysis (reference value: 88.20 %)", "format": "functional", "conditions": "read-out: Activity"}, "[37]": {"tested_on": "MCF7", "test": "Cytotoxicity against human MCF7 cells assessed as inhibition of cell growth incubated for 48 hrs by SRB assay", "format": "functional, cell-based", "conditions": "MCF7, 48 h"}}, "note": "Active and inactive are the calls of the source. No cut-off for these calls is given here.", "data": [{"smiles": "C=C(C)[C@@H]1CCC(C)=C[C@H]1c1c(O)cc(CCCCC)c2c1OCN(CCCC)C2", "values": [{"measurement": "half-life at 5 µM", "setting": "[1]", "result": 32, "unit": "min"}, {"measurement": "solubility", "setting": "[2]", "result": "> 1500", "unit": "µg/mL"}, {"measurement": "microsomal CLint at 5 µM", "setting": "[3]", "result": 44, "unit": "µL/min/mg"}, {"measurement": "Activity", "setting": "[4]", "result": "Active"}, {"measurement": "hepatic extraction ratio at 0.5 h, 5 µM", "setting": "[5]", "result": 0.67}, {"measurement": "selectivity ratio", "setting": "[6]", "result": 8.8}, {"measurement": "inhibition", "setting": "[7]", "result": "Active"}, {"measurement": "IC50", "setting": "[8]", "result": 4.2, "unit": "µM"}, {"measurement": "Activity", "setting": "[9]", "result": 9.86, "unit": "%"}, {"measurement": "solubility", "setting": "[10]", "result": 80, "unit": "µg/mL"}, {"measurement": "Activity", "setting": "[11]", "result": 8.93, "unit": "%"}, {"measurement": "Activity", "setting": "[12]", "result": 15.48, "unit": "%"}, {"measurement": "half-life at 5 µM", "setting": "[13]", "result": 31, "unit": "min"}, {"measurement": "selectivity ratio", "setting": "[14]", "result": 7}, {"measurement": "Activity", "setting": "[15]", "result": "Active"}, {"measurement": "inhibition at 20 µM", "setting": "[16]", "result": 85.3, "unit": "%"}, {"measurement": "permeability", "setting": "[17]", "result": "Permeable"}, {"measurement": "Activity", "setting": "[18]", "result": "Active"}, {"measurement": "CLint scaled at 5 µM", "setting": "[19]", "result": 182, "unit": "mL/min/kg"}, {"measurement": "Activity", "setting": "[20]", "result": "Active"}, {"measurement": "inhibition (INH)", "setting": "[21]", "result": "Active"}, {"measurement": "inhibition at 20 µM", "setting": "[22]", "result": 82.6, "unit": "%"}, {"measurement": "inhibition (INH)", "setting": "[23]", "result": "Active"}, {"measurement": "Activity", "setting": "[24]", "result": 15.07, "unit": "%"}, {"measurement": "fold change (FC)", "setting": "[25]", "result": 4.3}, {"measurement": "Activity", "setting": "[26]", "result": 75.72, "unit": "%"}, {"measurement": "CLint scaled at 5 µM", "setting": "[27]", "result": 51, "unit": "mL/min/kg"}, {"measurement": "Activity", "setting": "[28]", "result": 8.8, "unit": "%"}, {"measurement": "solubility", "setting": "[29]", "result": 80, "unit": "µg/mL"}, {"measurement": "Activity", "setting": "[30]", "result": "Active"}, {"measurement": "hepatic extraction ratio at 0.5 h, 5 µM", "setting": "[31]", "result": 0.71}, {"measurement": "IC50 at 48 h", "setting": "[32]", "result": 37.1, "unit": "µM"}, {"measurement": "Activity", "setting": "[33]", "result": 46.45, "unit": "%"}, {"measurement": "microsomal CLint at 5 µM", "setting": "[34]", "result": 46, "unit": "µL/min/mg"}, {"measurement": "Activity", "setting": "[35]", "result": 12.05, "unit": "%"}, {"measurement": "viability at 5.3 µM", "setting": "[36]", "result": 66.1, "unit": "%"}, {"measurement": "IC50", "setting": "[37]", "result": 5.3, "unit": "µM"}]}]}
